Experimental data: US20260144882A1, “ANTI-NECTIN-4 ANTIBODY DRUG CONJUGATE AND USE THEREOF” (Bio-Thera Solutions, Ltd., priority 2022, published 2026)
“And” between values parts separate entries of the source, which are not always exact repeats. Identical values can stand only once.

Columns and labels:
[1] = target: T1, hNectin-4-His (human Nectin-4 extracellular antigen) (Homo sapiens, UniProt Q96NY8); assay: SPR (BIAcore) affinity assay; assay type: binding
T1 construct: made in house
T1 sequence (Q96NY8 with tags, fused parts or gaps): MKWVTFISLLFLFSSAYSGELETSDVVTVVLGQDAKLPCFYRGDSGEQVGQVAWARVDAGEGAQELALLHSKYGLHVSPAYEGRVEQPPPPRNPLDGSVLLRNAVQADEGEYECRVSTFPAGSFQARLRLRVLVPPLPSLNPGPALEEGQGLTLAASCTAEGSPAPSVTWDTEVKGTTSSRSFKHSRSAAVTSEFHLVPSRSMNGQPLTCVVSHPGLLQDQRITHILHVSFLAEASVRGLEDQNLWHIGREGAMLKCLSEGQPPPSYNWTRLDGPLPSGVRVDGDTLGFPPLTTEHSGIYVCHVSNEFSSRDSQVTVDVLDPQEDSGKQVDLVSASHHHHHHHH
Description: In this study, the affinity of the antibodies for the human Nectin-4 extracellular antigen was detected by surface plasmon resonance (SPR) technique (BIAcore: GE Healthcare, T200).
Capture was performed using a Protein A chip (Cat #29127556, GE Healthcare), and 5 µg/mL antibody dilutions (in HBS-EP+(10×): GE Healthcare, Cat #BR-1006-69, with a working concentration of 1×) were directed through the experimental flow channels (Fc2 and Fc4) at a flow rate of 10 μL/min for 10 s; then, the flow rate was adjusted to 30 μL/min, the hNectin-4-His dilutions at different concentrations (0 nM, 1.23 nM, 3.7 nM, 11.1 nM, 33.3 nM, and 100 nM) were sequentially added, and simultaneously directed through the surfaces of the experimental flow channels (Fc2 and Fc4) and reference flow channels (Fc1 and Fc3) with an association time of 120 s and a dissociation time of 180 s, and finally, the chip was regenerated in Glycine 1.5.

T-47D cells = assay: Endocytosis efficiency assay by FACS; assay type: cell-based, human
Description: In this assay, the relative amount of antibodies remaining on the cell surface after co-incubation at 37° C. for a certain period of time was detected by FACS to reflect the endocytosis efficiency. The procedures are briefly described as follows: T-47D cells (human ductal breast cancer cells, derived from the Cell Bank of Chinese Academy of Sciences, Cat.No. TCHu 87); the antibodies of interest were adjusted to 10 µg/mL and co-incubated with the cells on ice for 1 h; the cells were washed 3 times with pre-cooled PBS, and then placed at 37° C. and incubated for 0 h, 2 h and 4 h; 0.2% N3Na was added to stop the endocytosis reaction; the cells were washed with PBS thrice, followed by the addition of the PE-labeled anti-human Fc secondary antibody (Invitrogen 12-4998-82); the cells were incubated at 4° C. for 30 min; the red fluorescence signal was detected on a flow cytometer.

mouse mNectin-4 protein = target: T2, mouse mNectin-4 protein (Mus musculus, UniProt Q8R007); assay: Species specificity ELISA, mouse Nectin-4; assay type: binding; conditions: in words
T2 construct: purchased ACRO NE4-M52H3
T2 sequence (Q8R007 31-508): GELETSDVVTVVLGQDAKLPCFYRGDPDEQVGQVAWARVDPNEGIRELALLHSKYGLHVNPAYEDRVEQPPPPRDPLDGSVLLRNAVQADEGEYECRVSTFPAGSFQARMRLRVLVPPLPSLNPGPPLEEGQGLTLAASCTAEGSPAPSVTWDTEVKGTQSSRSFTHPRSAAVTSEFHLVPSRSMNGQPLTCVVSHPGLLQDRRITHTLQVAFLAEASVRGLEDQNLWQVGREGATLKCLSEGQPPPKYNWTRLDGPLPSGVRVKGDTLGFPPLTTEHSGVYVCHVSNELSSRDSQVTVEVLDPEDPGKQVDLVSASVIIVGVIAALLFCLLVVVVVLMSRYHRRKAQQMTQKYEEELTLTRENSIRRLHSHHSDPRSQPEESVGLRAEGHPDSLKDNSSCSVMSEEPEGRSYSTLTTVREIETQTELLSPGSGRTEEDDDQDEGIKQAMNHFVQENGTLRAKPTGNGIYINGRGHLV
Description: The binding of different antibodies to different species of Nectin-4 proteins was detected by ELISA. hNectin-4-His, monkey cNectin-4 protein (ACRO, NE4-C52H4) and mouse mNectin-4 protein (ACRO, NE4-M52H3) were immobilized; antibodies ASG-22, 1F3, 1G8, 3A10, and 10F4 were serially diluted, and HRP-labeled anti-human-Kappa secondary antibody was added for chromogenic reaction.

Ka ([1]; Table 12, association rate): 723000 M⁻¹ s⁻¹
Kd ([1]; Table 12, dissociation rate): 0.00436 s⁻¹
ka ([1]; Table 13): 577000 M⁻¹ s⁻¹ and 540000 M⁻¹ s⁻¹
kd ([1]; Table 13): 0.00581 s⁻¹ and 0.0059 s⁻¹
binding to mouse Nectin-4 (mouse mNectin-4 protein): weak binding
Substance: ASG-22: reference antibody; heavy chain SEQ ID NO: 5, light chain SEQ ID NO: 6 [reference compound]
Endocytosis rate at 2 h (T-47D cells; Table 14): 49.8%
Endocytosis rate at 4 h (T-47D cells; Table 14): 74.1%
MFI (mean fluorescence intensity) 2 h (T-47D cells; Table 14, 37° C.): 53739.06
MFI (mean fluorescence intensity) 4 h (T-47D cells; Table 14, 37° C.): 27694.23
Endocytosis rate at 2 h (T-47D cells; Table 15): 35.2%
Endocytosis rate at 4 h (T-47D cells; Table 15): 35.4%
MFI (mean fluorescence intensity) 0 h (T-47D cells; Table 15, 37° C., 0 h): 58,591.2
MFI (mean fluorescence intensity) 2 h (T-47D cells; Table 15, 37° C.): 37,973.0
MFI (mean fluorescence intensity) 4 h (T-47D cells; Table 15, 37° C.): 37,844.0
